Experimental data from US6362225B1 (priority 1999, dated 2002).

How the values were obtained:
[1] = cited from earlier work
[2] = tested on: upper respiratory infections settled in the lungs; assay: Lysine solution by nebulizer directly into the lungs; assay type: in vivo, human; conditions: one test subject
From the text: Often upper respiratory infections settle in the lungs and can cause prolonged discomfort, coughing and heavy chest congestion.

[3] = tested on: cold virus; assay: Nasal spray of lysine solution in test subjects with colds or flu; assay type: in vivo, human
[4] = tested on: herpes simplex II; assay: Lysine nasal spray for herpes outbreaks; assay type: in vivo, human
[5] = tested on: cold virus; assay: Nasal spray of lysine after exposure to persons with severe colds; assay type: in vivo, human; conditions: nasal spray continued for at least three days after exposure to persons with severe colds
From the text: The administration of lysine in the form of a nasal spray was used by other test subjects after being exposed to persons with severe colds, that is persons who were frequently coughing and sneezing.

[6] = tested on: canker sore; assay: Lysine solution applied directly to canker sores and cold sores; assay type: in vivo, human
From the text: Another test subject with a long history of canker sore outbreaks reported that once one canker sore appeared several more usually followed within a day or two. These sores were quite painful and often lasted from five to ten days. The subject was given the lysine solution and told to apply it directly to the lesion. […] The application was repeated every three or four hours until the canker sore was completely healed. […] Since this subject has been using the lysine solution the outbreaks of canker sores are infrequent and are healed very quickly.
As shown above, the use of lysine by targeting the infected areas may shorten the duration of the outbreak and may even prevent illnesses such as colds and sore throats if used directly after contact with an infected person or at the onset of symptoms. Essentially the use of the lysine solution or composition in the nose, mouth and/or lungs, or other specific areas of the body may represent a topical application of lysine to the infected area. Thus, the duration of an infection may be considerably lessened by applying lysine to that infected area.

[7] = tested on: sore throat; assay: Lysine nasal inhalation or throat spray for sore throat; assay type: in vivo, human; conditions: one test subject
From the text: A test subject used nasal inhalation of lysine every three hours to treat a sore throat and reported relief after one day.
Another test subject who has suffered from throat infections for many years used the lysine spray directly into the throat at the first sign of soreness on at least four occassions. The treatment was repeated every three to four hours for two days.

[8] = ten test subjects, cold virus, […], 3500 mg lysine in 1.5 oz. 0.65% saline, spray twice in each nostril every three hours

## Cl.NCCCC[C@H](N)C(=O)O [lysine, L-lysine monohydrochloride]
[1]; general statement
  Toxic levels: No toxic levels
[1]; high doses ingested as tablets
  Adverse side effects of ingested lysine: gastric distress
[2]
  Onset of lessening of lung symptoms: lessened almost immediately
  Time until symptoms cleared up completely: one to three
[3]; colds or flu, intervals lengthened to six or more hours, compared with one to four hours
  Effectiveness of treatment at lengthened intervals: considerably less effective
[3]; [8]
  Number of subjects reporting relief obtained in 1 day: 5
  Number of subjects reporting relief obtained in 2 days: 3
  Number of subjects reporting relief obtained in 3 days: 2
[4]; one test subject with twenty year history, nasal spray every three hours for one day
  Effect on herpes simplex II outbreak: stopped the outbreak
[4]; one test subject, nasal spray plus lysine tablets, compared with tablets alone
  Response of genital herpes outbreaks: responded much faster than with the tablets alone
[4]; same test subject, regular use of the nasal spray
  Prevention of herpes outbreaks: prevented herpes outbreaks to the point of almost eliminating them altogether
[5]
  Cold symptoms after exposure: never felt cold symptoms at all
[6]; one test subject, application repeated every three or four hours
  Secondary canker sore lesions: no secondary lesions developed
[6]; one test subject, application repeated every three or four hours, sores previously lasted five to ten days
  Time until canker sore completely healed: three to five
[6]; one test subject, solution applied directly to the lesion
  Pain associated with canker sore: alleviated as soon as the solution was applied
[6]; solution applied directly, in contrast to ingestion of lysine tablets alone
  Healing response of cold sores and canker sores: fast healing response
[7]; nasal inhalation every three hours
  Time to relief of sore throat: one
[7]; spray directly into the throat at first sign of soreness, every three to four hours for two days, at least four occasions
  Development of full sore throat: never occurred
